Conditions: not given

SMILES	boiling point	log10 Henry constant (atm·m³/mol)	log10 vapour pressure (mmHg)	melting point	ready biodegradability	log10 Koc (L/kg)	log10 biodegradation half-life (days)	log10 Koa
Cc1cccnc1C	161 °C	-5.14	0.43					
C[Si](C)(F)c1ccccc1			0.463					
CN(C)Cc1c[nH]c2ccccc12				138 °C				
COc1ccccc1C(=O)c1ccccc1				41 °C				
CCCCCCCCCCCCCCCCCC(=O)N(CCO)CCO					readily biodegradable			
O=C(O)CCCCCBr				35 °C				
Cl.NCCc1c[nH]c2ccccc12				255 °C				
O=Cc1cc(Cl)cc(Cl)c1	240 °C			65 °C				
CCCCCCCCCCCC(=O)OC	267 °C		-2.39	5.2 °C	readily biodegradable			
IC1CCCC1	166 °C							
CC(Cl)C(Cl)Cl (stereo not given)	132 °C		0.491					
COC(=O)c1ccccc1S(=O)(=O)NC(=O)N(C)c1nc(C)nc(OC)n1		-13	-9.41	141 °C		1.72		
Clc1cccc2c1Oc1c(Cl)c(Cl)c(Cl)c(Cl)c1O2			-9.25	220 °C				
C1=CCC(c2ccncc2)CC1 (stereo not given)	226 °C			22.1 °C				
CC(C)(C)S(=O)(=O)O				113 °C				
NCCC(=O)O					readily biodegradable			
Clc1cccc(-c2c(Cl)c(Cl)c(Cl)c(Cl)c2Cl)c1Cl		-4.85						
CC1(C)[C@H](C(=O)O[C@H](C#N)c2cccc(Oc3ccccc3)c2)[C@@H]1C=C(Br)Br			-7.82	100 °C				
Cc1cc(C)nc(NS(=O)(=O)c2ccc(N)cc2)n1				198 °C				
CCOc1ccc(N)cc1	254 °C		-1.98	2.4 °C	not readily biodegradable			
O=c1cc(O)cc[nH]1				278 °C				
CCC1OCC(COc2ccc(Oc3ccccc3)cc2)O1 (stereo not given)			-6.08					
Sc1ccccn1				129 °C				
Cc1cccc2sc3nncn3c12	275 °C		-6.7	187 °C		3.09		
CC(C)(C#N)C#N	170 °C		0.16	31.5 °C				
CC(=O)Oc1c(I)cc(I)cc1C(=O)Nc1ccc(Cl)cc1				216 °C				
CC(=O)c1ccc(O[C@@H]2O[C@H](CO)[C@@H](O)[C@H](O)[C@H]2O)cc1				196 °C				

SMILES	boiling point	log10 Henry constant (atm·m³/mol)	log10 vapour pressure (mmHg)	melting point	ready biodegradability	log10 Koc (L/kg)	log10 biodegradation half-life (days)	log10 Koa
C#CCI	115 °C							
OCCN1CCN(CCCN2c3ccccc3Sc3ccc(Cl)cc32)CC1				97 °C				
O=C(O)c1cnc[nH]1	294 °C							
CCCCCCCCOc1ccccc1	285 °C			8 °C				
CCCCC(CC)COC(=O)CCCCCCCC(=O)OCC(CC)CCCC (stereo not given)				-78 °C	readily biodegradable			
CC(=O)Oc1cc(C)ccc1C(C)C	245 °C							
CC(O)C(C)C(C)O (stereo not given)	212 °C							
O=C(O)c1ccccc1Cc1ccccc1				118 °C				
Clc1cccc(Cl)c1Br	242 °C			65 °C				
NC(=O)OCC(O)c1ccccc1 (stereo not given)				112 °C				
CC(C)CC(=O)C1C(=O)c2ccccc2C1=O				68.5 °C				
CCC(Cl)CCl (stereo not given)	124 °C		1.32					
Nc1ccc(Nc2ccc([N+](=O)[O-])cc2[N+](=O)[O-])cc1			-10.2	188 °C				
CC(C=O)c1ccccc1 (stereo not given)	204 °C		-0.569					
C=C1C[C@H]2[C@@H]3CCC4=CC(=O)C=C[C@]4(C)[C@H]3[C@@H](O)C[C@]2(C)[C@@]1(O)C(=O)CO				234 °C				
O=S(=O)(O)CCNC1CCCCC1				320 °C				
O=C(O)c1ccccn1				136 °C	readily biodegradable			
O=C(C(Cl)Cl)C(Cl)(Cl)Cl				2.1 °C				
c1ccc2sccc2c1	221 °C		-0.624	32 °C		3.48	1.4	
O=C1CC[C@@H](C(=O)O)N1				185 °C				
NNS(=O)(=O)c1ccc(Oc2ccc(S(=O)(=O)NN)cc2)cc1					not readily biodegradable			
CCCCOCCOCCCC	203 °C		-1.05	-69.1 °C				
C=CCl	-13.3 °C	-1.56	3.47	-154 °C				
COP(=O)(OC)O/C(C)=C/C(=O)OC(C)c1ccccc1 (stereo not given)			-4.85			2		
CC(=O)[C@H]1CC[C@H]2[C@@H]3CC=C4C[C@@H](O)CC[C@]4(C)[C@H]3CC[C@]12C				192 °C				
OC[C@H]1O[C@@H](Oc2ccc(O)cc2)[C@H](O)[C@@H](O)[C@@H]1O				200 °C				
CN(C)c1ccc(N=NS(=O)(=O)O)cc1						1.18		

SMILES	boiling point	log10 Henry constant (atm·m³/mol)	log10 vapour pressure (mmHg)	melting point	ready biodegradability	log10 Koc (L/kg)	log10 biodegradation half-life (days)	log10 Koa
CN1CCN(CCCN2c3ccccc3Sc3ccccc32)CC1				52 °C				
S=c1sccs1				49 °C				
C[SiH](Cl)Cl	41 °C		2.63	-93 °C				
CO[Si](C)(C)OC	82 °C							
c1ccc2c(c1)ccc1[nH]c3ccc4ccccc4c3c12				158 °C		6.03		
CC(C)(C)N=C=O				85.5 °C				
C#CC(C)O (stereo not given)	106 °C			-3 °C				
Cl.N=C(N)SCc1ccc(Cl)cc1				197 °C				
O=C(O)CCOc1cccc2ccccc12				146 °C				
NC(=O)Cc1cccc2ccccc12				184 °C		2		
CNC(=O)c1cccnc1				104 °C				
CC(C)NCC(O)COc1ccc(O)cc1 (stereo not given)				128 °C				
C=CCOC(Cn1ccnc1)c1ccc(Cl)cc1Cl (stereo not given)	347 °C		-5.92	52.7 °C		3.73		
C/C=C/C(=O)c1ccccc1				20.5 °C				
O=C(O)c1ccc2c(c1)C(=O)c1ccccc1C2=O				291 °C				
COCC(=O)N(c1c(C)cccc1C)C(C)C(=O)OC (stereo not given)			-4.93		not readily biodegradable	1.57		
O=C(O)C(Br)C(Br)C(=O)O (stereo not given)					not readily biodegradable			
C=CC(C)(CCC=C(C)C)OC(=O)C(C)C (stereo not given)	229 °C							
c1ccc(Oc2ccccc2)cc1	258 °C		-1.65	26.8 °C	readily biodegradable	3.29		
CC1C2Cc3ccc(O)cc3C1(C)CCN2CC1CC1 (stereo not given)				202 °C				
Nc1nc2c(ncn2COCCO)c(=O)[nH]1				255 °C				
CCCOP(OCCC)OCCC	206 °C							
Cc1cc(C)nc(N)n1				152 °C				
O=NN1CN2CN(C1)CN(N=O)C2				204 °C	readily biodegradable			
CC=Cc1ccccc1O	220 °C			-6 °C				
FC(OC(F)(F)C(F)(F)C(F)(F)F)C(F)(F)F (stereo not given)	41 °C							
CN(C)C(=S)SC(=S)N(C)C				110 °C				

SMILES	boiling point	log10 Henry constant (atm·m³/mol)	log10 vapour pressure (mmHg)	melting point	ready biodegradability	log10 Koc (L/kg)	log10 biodegradation half-life (days)	log10 Koa
c1cnc2[nH]ccc2c1				106 °C				
OC(c1ccc(Cl)cc1)c1cc2ccccc2o1 (stereo not given)				48.5 °C				
CCCCC(C)(C)CO	172 °C							
CC1C(=O)CC2CC1C2(C)C (stereo not given)	212 °C							
C=CCCCCCCCCC(=O)OC	248 °C			-27.5 °C				
CCSC#N	146 °C			-85.5 °C				
O=c1oc2ccccc2c(O)c1C1CCCc2ccccc21 (stereo not given)			-10.2	172 °C				
CCCCCC#N	164 °C		0.455	-80.3 °C				4.08
CC(C)(C(N)=O)n1nnc2ccccc21				187 °C				
CN(C)C(=O)Oc1ccc[n+](C)c1.[Br-]				153 °C				
CCCc1nccnc1C	189 °C							
Cc1cccc(I)c1	213 °C			-27.2 °C				
CCC(CO)[N+](=O)[O-] (stereo not given)				-47 °C				
CCCCCCC(C)NC(C)CCCCCC (stereo not given)	283 °C							
O=C1CN=C(c2ccccc2)c2cc(Cl)ccc2N1CC(F)(F)F				165 °C				
COCC(C)N(C(=O)CCl)c1c(C)csc1C (stereo not given)		-7.09	-3.56					
ClC(Cl)=C(c1ccc(Cl)cc1)c1ccccc1Cl			-5.21			5.49		
Nc1ccc(N)c2c1C(=O)c1cccc([N+](=O)[O-])c1C2=O				257 °C				
CN1C(=O)C(=NNC(N)=S)c2ccccc21				245 °C				
O=Cc1ccccc1Cl	212 °C		-0.638	12.4 °C	not readily biodegradable			
C=CCCBr	98.5 °C							
O=c1[nH]c(=O)n(C2CCCO2)cc1F (stereo not given)				172 °C				
O=C1OC(=O)C2CC=CCC12 (stereo not given)					not readily biodegradable			
C=CC[Si](C)(C)Cl	111 °C							

Same assay, conditions: fish

SMILES	log10 BCF	log10 biotransformation half-life (days)
CC1(C)[C@H](C(=O)O[C@H](C#N)c2cccc(Oc3ccccc3)c2)[C@@H]1C=C(Br)Br	2.51	0.51
CCOc1ccc(N)cc1	1	-1.24
Brc1cc(Br)c(Oc2c(Br)c(Br)c(Br)c(Br)c2Br)c(Br)c1Br	5.75	
O=C(O)C(Br)C(Br)C(=O)O (stereo not given)	0.81	
c1ccc(Oc2ccccc2)cc1	2.5	-0.09
Clc1c(Cl)c(Cl)c(Oc2c(Cl)c(Cl)c(Cl)c(Cl)c2Cl)c(Cl)c1Cl		1.8
